Measurements reported in patent publication US7371779B2, “Synergistic compositions of N-acylhomoserine lactones and 4-quinolones” (The Secretary of State for Defense Science and Technology, priority 2001, dated 2008).
Entries after “also recorded” stand apart in the source; their conditions may differ. Where two headings read alike, the source gives them in different places.

What was measured:
[1] = system: TNFα; details: Infection and Immunity vol.66 no.1, 1998; cited from earlier work
[2] = system: murine spleen cells; details: Infection and Immunity vol.66 no.1, 1998; cited from earlier work
[3] = system: murine splenocytes; assay: ConA mitogen-stimulated proliferation of murine splenocytes ([3H]-thymidine incorporation); assay type: cell-based, mouse (BALB/c); details: for inhibition of ConA induced murine splenocyte proliferation (cpm), in words: ConA 1 μg/ml, BALB/c splenocytes
Description: (§1) Proliferation was assessed by the incorporation of [^3H]-thymidine into DNA. Eight-week-old female BALB/c mice were obtained from Harlan (Bicester, Oxon, UK) and given food and water ad libitum. Splenocyte suspensions were prepared by removing the spleens and placing them into RPMI 1640 medium. The spleens were forced through 70-μm-pore-size wire gauzes using the plunger from a 5-ml syringe to produce a single cell suspension. The cells were pelleted by centrifugation, and erythrocytes were lysed with 0.017 M Tris, 0.144 M ammonium chloride buffer, pH 7.2. Leucocytes were washed twice with RPMI 1640 medium with 2% (vol/vol) foetal calf serum (FCS) and resuspended in complete cell culture medium (CTCM) consisting of RPMI 1640 medium with 5% FCS, 2 mM L-glutamine, and 5×10^−5 M 2-mercaptoethanol. HSL compounds were tested at doubling down dilutions ranging from 1 mM to 0.1 μM in a final volume of 200 μl of CTCM, containing ConA (Sigma, Poole, UK) at 1 μg/ml and 100,000 spleen cells. Following incubation for 48 h at 37° C. in 5% CO2-air, 0.25 μCi [^3H]-thymidine (Amersham) in 10 μl volume made up in RPMI 1640 medium was added and the cells were incubated for a further 24 h. Cells were harvested onto fibreglass filters with a Packard filtermate harvester. After the addition of 25 μl of MicroScint-O (Packard) to each well the filters were counted with the Packard TopCount scintillation counter.
(§2) Mitogen (Concanavalin A) induced murine splenocyte proliferation was indicated by the incorporation of tritated thymidine into the DNA in the mouse spleen cells as shown by counts per minute using the scintillation counter. The inhibitory effect of an HSL compound being tested on cell proliferation was indicated by a reduction in counts per minute.
as §1, with “70 μm pore size” for “70-μm-pore-size”, “5 ml” for “5-ml”, “The title compound was” for “HSL compounds were”, “dilutions” for “dilutions ranging from 1 mM to 0.1 μM in a final volume of 200 μl of CTCM,”, “g/ml” for “μg/ml”, “COrair,” for “CO2-air,”
as §2, with “the title” for “an HSL”

[4] = system: human PBMC; assay: ConA mitogen-stimulated proliferation of human PBMC ([3H]-thymidine incorporation); assay type: cell-based; details: for IC50: Experiment II, read-out: IC50 in inhibition of ConA induced cell proliferation of PBMC
Description: Blood specimens were obtained with consent from healthy human volunteers. Human peripheral blood mononuclear cells (PBMC) were isolated from heparinised whole blood by buoyant density centrifugation over Histopaque 1077 (Sigma, Poole, UK) at 600 g for 20 minutes. PBMC harvested from the ‘buffy’ layers were washed twice with RPMI 1640 medium and resuspended in CTCM. […] Human PBMC were incubated for 48 h at 37° C. in 5% CO2-air, followed by pulsing with 0.25 μCi [^3H]-thymidine (see above). After a further incubation of 24 h cells were harvested onto fibreglass filters and then counted in the presence of MicroScint-O with the Packard TopCount.
Concanavalin induced cell proliferation of human peripheral blood mononuclear cells (PBMC) was tracked, as described in I above, by a measurement of counts per minute using the scintillation counter. The inhibitory effect of an HSL compound being tested on cell proliferation was indicated by a reduction in counts per minute. […] Columns B, C and D represent different sources of human PBMC samples used.
Plots of counts per minute (cpm) against the concentration of the quorum sensing molecules and the vehicle are shown in FIG. 11.

Compound | inhibition of TNFα production by LPS-stimulated adherent murine peritoneal macrophages [1] | inhibition of ConA mitogen stimulated proliferation of murine spleen cells [2] | effect of OdDHL alone on murine splenocyte proliferation ([3]; 6.25 μM, alone) | IC50 ([3]; ConA 1 μg/ml, 100,000 spleen cells, Experiment I, read-out: IC50 in inhibition of ConA induced murine splenocyte proliferation) [µM] | inhibition of ConA induced murine splenocyte proliferation (cpm), in words ([3]; listed as OdDHL) | effect of OdDHL alone on ConA induced hPBMC proliferation ([4]; 6.25 μM, alone) | inhibition of ConA induced proliferation of human PBMC (cpm), in words ([4]; ConA 1 μg/ml) | IC50 ([4]; human PBMC source B) [µM] | IC50 ([4]; human PBMC source C) [µM] | IC50 ([4]; human PBMC source D) [µM] | inhibition of ConA induced murine splenocyte proliferation (cpm), in words [3] | inhibition of ConA induced murine splenocyte proliferation (cpm), in words ([3]; listed as 2-heptyl-3-hydroxy-4(1H)quinolone)
CCCCCCCCCC(=O)CC(=O)N[C@H]1CCOC1=O [Example 6] | inhibiting | inhibiting | inactive | 4 | inhibits splenocyte proliferation; also recorded: inhibit the proliferation | inactive | inhibited proliferation of human PBMC | 60 | 7 | 34 | – | –
CCCCCCCc1[nH]c2ccccc2c(=O)c1O [PQS] | – | – | – | – | – | – | – | – | – | – | inhibit the proliferation | inhibits splenocyte proliferation
